From patent publication US20230257393A1, “MACROMOLECULE-SUPPORTED THIENOAZEPINE COMPOUNDS, AND USES THEREOF” (BOLT BIOTHERAPEUTICS, INC., priority 2020, published 2023)
Read-outs that look alike come from different tables or passages of the source.

Key:
[1] = target: T1, human TLR7 (Homo sapiens, UniProt Q9NYK1); test: HEK Reporter Assay, HEK293 NFKB reporter cells expressing human TLR7; type: cell-based; conditions: Table 1a, read-out: HEK293 hTLR7 EC50
T1 construct: host or cells: HEK293 reporter cells
T1 sequence (Q9NYK1 27-1049): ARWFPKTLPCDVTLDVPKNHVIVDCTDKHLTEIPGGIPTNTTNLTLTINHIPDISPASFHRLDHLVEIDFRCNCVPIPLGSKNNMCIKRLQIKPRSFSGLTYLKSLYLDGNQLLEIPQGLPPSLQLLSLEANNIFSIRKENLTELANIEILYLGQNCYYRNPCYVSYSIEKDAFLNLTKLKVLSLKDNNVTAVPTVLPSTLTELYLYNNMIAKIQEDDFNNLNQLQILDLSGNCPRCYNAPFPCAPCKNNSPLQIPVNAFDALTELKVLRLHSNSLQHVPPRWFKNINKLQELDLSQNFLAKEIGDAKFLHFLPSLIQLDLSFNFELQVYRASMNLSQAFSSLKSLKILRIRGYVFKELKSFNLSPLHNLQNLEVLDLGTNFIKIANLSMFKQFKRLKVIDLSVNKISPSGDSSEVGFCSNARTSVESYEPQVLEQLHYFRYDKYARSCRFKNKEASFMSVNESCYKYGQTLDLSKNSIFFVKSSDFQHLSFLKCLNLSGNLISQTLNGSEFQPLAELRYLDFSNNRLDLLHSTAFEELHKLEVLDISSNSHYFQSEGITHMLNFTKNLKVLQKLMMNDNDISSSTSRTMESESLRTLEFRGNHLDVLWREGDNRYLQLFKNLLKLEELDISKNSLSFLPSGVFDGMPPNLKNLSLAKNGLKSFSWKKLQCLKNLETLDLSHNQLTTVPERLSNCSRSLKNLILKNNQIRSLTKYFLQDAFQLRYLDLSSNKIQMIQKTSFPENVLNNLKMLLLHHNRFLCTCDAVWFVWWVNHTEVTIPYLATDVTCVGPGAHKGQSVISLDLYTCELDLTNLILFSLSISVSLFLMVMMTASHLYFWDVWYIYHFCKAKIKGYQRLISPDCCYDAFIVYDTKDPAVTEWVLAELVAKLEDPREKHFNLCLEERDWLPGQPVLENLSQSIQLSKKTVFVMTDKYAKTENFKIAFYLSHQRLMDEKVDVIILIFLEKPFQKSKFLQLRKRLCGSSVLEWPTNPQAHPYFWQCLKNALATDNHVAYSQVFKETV
Experimental: (§1) Each compound was synthesized, purified, and characterized by mass spectrometry and shown to have the mass indicated. Additional experimental procedures are found in the Examples. Activity against HEK293 NFKB reporter cells expressing human TLR7 or human TLR8 was measured according to Example 202.
(§2) HEK293 reporter cells expressing human TLR7 or human TLR8 were purchased from Invivogen and vendor protocols were followed for cellular propagation and experimentation. Briefly, cells were grown to 80-85% confluence at 5% CO2 in DMEM supplemented with 10% FBS, Zeocin, and Blasticidin. Cells were then seeded in 96-well flat plates at 4×10^4 cells/well with substrate containing HEK detection medium and immunostimulatory molecules. Activity was measured using a plate reader at 620-655 nm wavelength.

[2] = target: T2, human TLR8 (Homo sapiens, UniProt Q9NR97); test: HEK Reporter Assay, HEK293 NFKB reporter cells expressing human TLR8; type: cell-based; conditions: read-out: HEK293 hTLR8 EC50
T2 construct: host or cells: HEK293 reporter cells
T2 sequence (Q9NR97 27-1041): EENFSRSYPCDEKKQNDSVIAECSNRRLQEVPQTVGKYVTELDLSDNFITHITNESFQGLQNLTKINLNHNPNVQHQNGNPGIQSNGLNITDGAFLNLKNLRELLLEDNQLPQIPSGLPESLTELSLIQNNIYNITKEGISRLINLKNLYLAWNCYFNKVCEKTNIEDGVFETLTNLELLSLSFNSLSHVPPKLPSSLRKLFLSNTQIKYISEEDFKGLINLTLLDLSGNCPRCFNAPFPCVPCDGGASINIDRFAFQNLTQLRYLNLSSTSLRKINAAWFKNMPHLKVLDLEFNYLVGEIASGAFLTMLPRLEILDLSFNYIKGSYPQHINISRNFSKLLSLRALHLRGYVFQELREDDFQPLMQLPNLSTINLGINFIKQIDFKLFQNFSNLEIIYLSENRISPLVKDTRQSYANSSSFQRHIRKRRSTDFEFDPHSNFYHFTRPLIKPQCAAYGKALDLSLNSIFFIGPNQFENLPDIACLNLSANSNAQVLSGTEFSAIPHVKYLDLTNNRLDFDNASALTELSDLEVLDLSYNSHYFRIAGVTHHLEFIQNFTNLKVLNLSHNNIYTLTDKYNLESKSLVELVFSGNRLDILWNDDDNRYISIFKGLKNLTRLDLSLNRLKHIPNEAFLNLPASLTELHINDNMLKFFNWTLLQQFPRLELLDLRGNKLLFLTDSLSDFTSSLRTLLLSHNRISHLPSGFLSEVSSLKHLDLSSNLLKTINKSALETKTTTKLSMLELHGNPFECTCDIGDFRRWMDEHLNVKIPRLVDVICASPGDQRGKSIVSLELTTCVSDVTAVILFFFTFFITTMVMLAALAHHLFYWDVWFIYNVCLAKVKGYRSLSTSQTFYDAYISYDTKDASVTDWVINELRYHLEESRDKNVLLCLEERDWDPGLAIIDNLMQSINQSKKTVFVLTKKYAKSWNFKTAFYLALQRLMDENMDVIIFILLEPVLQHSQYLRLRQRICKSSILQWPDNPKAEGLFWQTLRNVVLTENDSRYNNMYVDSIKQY
Experimental: as §1, §2

Row | Compound | EC50 [1] | EC50 ([2]; Table 1a) | EC50 ([2]; Table 1c)
1 | CCCN(CCC)C(=O)C1=Cc2sc(Br)cc2N=C(N)C1 [TAZ-1, 5-amino-2-bromo-N,N-dipropyl-6H-thieno[3,2-b]azepine-7-carboxamide] | > 9 µM | > 9 µM | –
2 | CCCN(CCC)C(=O)C1=Cc2sc(C(=O)Nc3ccc(N4CCC(C(=O)NCCNC(=O)OC(C)(C)C)CC4)nc3)cc2N=C(N)C1 [TAZ-3, tert-butyl (2-(1-(5-(5-amino-7-(dipropylcarbamoyl)-6H-thieno[3,2-b]azepine-2-carboxamido)pyridin-2-yl)piperidine-4-carboxamido)ethyl)carbamate] | > 9 µM | > 9 µM | –
3 | CCCN(CCC)C(=O)C1=Cc2sc(-c3cccc(S(=O)(=O)N4CC(CO)C4)c3)cc2N=C(N)C1 [TAZ-4, 5-amino-2-[3-[3-(hydroxymethyl)azetidin-1-yl]sulfonylphenyl]-N,N-dipropyl-6H-thieno[3,2-b]azepine-7-carboxamide] | > 9 µM | > 9 µM | –
4 | CCCN(CCC)C(=O)C1=Cc2sc(C)cc2N=C(N)C1 [TAZ-7, 5-amino-2-methyl-N,N-dipropyl-6H-thieno[3,2-b]azepine-7-carboxamide] | > 9 µM | > 9 µM | –
5 | CCCN(CCCNC(=O)OC(C)(C)C)C(=O)C1=Cc2sc(Br)cc2N=C(N)C1 [TAZ-9, tert-butyl N-[3-[(5-amino-2-bromo-6H-thieno[3,2-b]azepine-7-carbonyl)-propyl-amino]propyl]carbamate] | > 9 µM | > 9 µM | –
6 | CCCN(CC#CCNC(=O)OC(C)(C)C)C(=O)C1=Cc2sc(Br)cc2N=C(N)C1 [TAZ-10, tert-butyl N-[4-[(5-amino-2-bromo-6H-thieno[3,2-b]azepine-7-carbonyl)-propyl-amino]but-2-ynyl]carbamate] | – | > 9 µM | –
7 | CCCN(CCCN)C(=O)C1=Cc2sccc2N=C(N)C1 [TAZ-11, 5-amino-N-(3-aminopropyl)-N-propyl-6H-thieno[3,2-b]azepine-7-carboxamide] | > 9 µM | > 9 µM | –
8 | CCCN(CCC)C(=O)C1=Cc2sc(-c3cnn(S(=O)(=O)N4CC(CO)C4)c3)cc2N=C(N)C1 [TAZ-12, 5-amino-2-[1-[3-(hydroxymethyl)azetidin-1-yl]sulfonylpyrazol-4-yl]-N,N-dipropyl-6H-thieno[3,2-b]azepine-7-carboxamide] | > 9 µM | > 9 µM | –
9 | CCCN(CCC)C(=O)C1=Cc2sc(CCCCCNC(=O)OC(C)(C)C)cc2N=C(N)C1 [TAZ-13, tert-butyl N-[5-[5-amino-7-(dipropylcarbamoyl)-6H-thieno[3,2-b]azepin-2-yl]pentyl]carbamate] | > 9 µM | > 9 µM | –
10 | CCCN(CCC)C(=O)C1=Cc2sc(-c3ccccc3)cc2N=C(N)C1 [TAZ-18, 5-amino-2-phenyl-N,N-dipropyl-6H-thieno[3,2-b]azepine-7-carboxamide] | > 9 µM | > 9 µM | –
11 | CCCN(CCC)C(=O)C1=Cc2sc(-c3cnn(COCC[Si](C)(C)C)c3)cc2N=C(N)C1 [TAZ-19, 5-amino-N,N-dipropyl-2-(1-((2-(trimethylsilyl)ethoxy)methyl)-1H-pyrazol-4-yl)-6H-thieno[3,2-b]azepine-7-carboxamide] | > 9 µM | > 9 µM | –
12 | CCCN(CCC)C(=O)C1=Cc2sc(C(=O)OC)cc2N=C(N)C1 [TAZ-20, methyl 5-amino-7-(dipropylcarbamoyl)-6H-thieno[3,2-b]azepine-2-carboxylate] | > 9 µM | > 9 µM | –
13 | CCCN(CCC)C(=O)C1=Cc2sc(-c3cn[nH]c3)cc2N=C(N)C1 [TAZ-21, 5-amino-N,N-dipropyl-2-(1H-pyrazol-4-yl)-6H-thieno[3,2-b]azepine-7-carboxamide] | > 9 µM | > 9 µM | –
14 | CCCN(CCC)C(=O)C1=Cc2sc(C(=O)O)cc2N=C(N)C1 [TAZ-22, 5-amino-7-(dipropylcarbamoyl)-6H-thieno[3,2-b]azepine-2-carboxylic acid] | > 9 µM | > 9 µM | –
15 | CCCN(CCC)C(=O)C1=Cc2sc(C(=O)Nc3ccccc3)cc2N=C(N)C1 [TAZ-23, 5-amino-N2-phenyl-N7,N7-dipropyl-6H-thieno [3,2-b]azepine-2,7-dicarboxamide] | > 9 µM | > 9 µM | –
16 | CCCN(CCC)C(=O)C1=Cc2sc(C(=O)NCC)cc2N=C(N)C1 [TAZ-24, 5-amino-N2-ethyl-N7,N7-dipropyl-6H-thieno[3,2-b]azepine-2,7-dicarboxamide] | > 9 µM | > 9 µM | –
17 | CCCN(CCC)C(=O)C1=Cc2sc(Cc3ccccc3)cc2N=C(N)C1 [TAZ-26, 5-amino-2-benzyl-N,N-dipropyl-6H-thieno[3,2-b] azepine-7-carboxamide] | > 9 µM | > 9 µM | –
18 | CCCN(C[C@H]1CC[C@@H](CNC(=O)OC(C)(C)C)CC1)C(=O)C1=Cc2sccc2N=C(N)C1 [TAZ-119] | – | – | ≥ 9 µM
19 | CCCN(C(=O)C1=Cc2sc(CCCCCNC(=O)OC(C)(C)C)cc2N=C(N)C1)C1CC1 [TAZ-123] | – | – | ≥ 9 µM
20 | CCCN(CC1CC1)C(=O)C1=Cc2sc(CCCCCNC(=O)OC(C)(C)C)cc2N=C(N)C1 [TAZ-125] | – | – | ≥ 9 µM
21 | CCCN(CCCNC(=O)CC(C)(C)C)C(=O)C1=Cc2sc(CN3CCNCC3)cc2N=C(N)C1 [TAZ-139] | – | – | ≥ 9 µM
22 | CCCN(CCCNC(=O)C(C)(C)C)C(=O)C1=Cc2sc(CCCCCN)cc2N=C(N)C1 [TAZ-142] | – | – | ≥ 9 µM
23 | CCCN(Cc1ccc(CN(C)C)cc1C(F)(F)F)C(=O)C1=Cc2sc(CCCCCNC(=O)OC(C)(C)C)cc2N=C(N)C1 [TAZ-143] | – | – | ≥ 9 µM
24 | CCCN(CCCNC(=O)OC1CCC1)C(=O)C1=Cc2sc(CN3CCNCC3)cc2N=C(N)C1 [TAZ-169] | – | – | ≥ 9 µM
25 | CCCN(OCC)C(=O)C1=Cc2sc(C#CC3CCN(C(=O)OC(C)(C)C)CC3)cc2N=C(N)C1 [TAZ-173] | – | – | ≥ 9 µM
26 | CCCN(CCCNC(=O)OC1CCC1)C(=O)C1=Cc2sc(CN3CCN(c4ccc(C(=O)OC)cc4)CC3)cc2N=C(N)C1 [TAZ-180] | – | – | ≥ 9 µM
27 | CCCN(CCCNC(=O)OC1CCC1)C(=O)C1=Cc2sc(CC3CNC3)cc2N=C(N)C1 [TAZ-181] | – | – | ≥ 9 µM
28 | CCCN(CCCNC(=O)OC1CCC1)C(=O)C1=Cc2sc(CC3CCNCC3)cc2N=C(N)C1 [TAZ-185, cyclobutyl N-[3-[[5-amino-2-(4-piperidylmethyl)-6H-thieno[3,2-b]azepine-7-carbonyl]-propyl-amino]propyl]carbamate] | – | – | ≥ 9 µM
29 | CCCN(CCCNC(=O)OC1CCC1)C(=O)C1=Cc2sc(CCC3CNC3)cc2N=C(N)C1 [TAZ-197] | – | – | ≥ 9 µM
30 | CCCN(CCCNC(=O)OC1CCC1)C(=O)C1=Cc2sc(CNC(=O)Cc3ccccc3)cc2N=C(N)C1 [TAZ-204] | – | – | 2.25 µM
